Ki data for two compounds are collected here from patent US10815239B2, “Compounds useful as inhibitors of ATR kinase” (Vertex Pharmaceuticals Incorporated, priority 2013, dated 2020).

A word on the pKi: it is the negative decadic logarithm of the Ki, by convention in mol/L.

Each structure is given as a SMILES string. pKi: −log10 of the molar value.

This assay has as its target T1, full-length ATR (Homo sapiens, UniProt Q13535).
T1 construct: Assays are carried out at 25° C. in the presence of 5 nM full-length ATR
The assay is described as follows: ATR Inhibition Assay (radioactive-phosphate incorporation). Format: biochemical. The following applies: 5 nM full-length ATR, 10 μM ATP, 800 μM target peptide, 25° C.; read-out: Ki (Ki(app)) for inhibition of ATR. The procedure:
Compounds can be screened for their ability to inhibit ATR kinase using a radioactive-phosphate incorporation assay. Assays are carried out in a mixture of 50 mM Tris/HCl (pH 7.5), 10 mM MgCl2 and 1 mM DTT. Final substrate concentrations are 10 μM [γ-33P]ATP (3 mCi 33P ATP/mmol ATP, Perkin Elmer) and 800 μM target peptide (ASELPASQPQPFSAKKK).
Assays are carried out at 25° C. in the presence of 5 nM full-length ATR. An assay stock buffer solution is prepared containing all of the reagents listed above, with the exception of ATP and the test compound of interest. 13.5 μL of the stock solution is placed in a 96 well plate followed by addition of 2 μL of DMSO stock containing serial dilutions of the test compound (typically starting from a final concentration of 15 μM with 3-fold serial dilutions) in duplicate (final DMSO concentration 7%). The plate is pre-incubated for 10 minutes at 25° C. and the reaction initiated by addition of 15 μL [γ-33P]ATP (final concentration 10 μM).
The reaction is stopped after 24 hours by the addition of 30 μL 0.1M phosphoric acid containing 2 mM ATP. […]
After removing mean background values for all of the data points, Ki(app) data are calculated from non-linear regression analysis of the initial rate data using the Prism software package (GraphPad Prism version 3.0cx for Macintosh, GraphPad Software, San Diego Calif., USA).

T1 sequence (Q13535 whole entry): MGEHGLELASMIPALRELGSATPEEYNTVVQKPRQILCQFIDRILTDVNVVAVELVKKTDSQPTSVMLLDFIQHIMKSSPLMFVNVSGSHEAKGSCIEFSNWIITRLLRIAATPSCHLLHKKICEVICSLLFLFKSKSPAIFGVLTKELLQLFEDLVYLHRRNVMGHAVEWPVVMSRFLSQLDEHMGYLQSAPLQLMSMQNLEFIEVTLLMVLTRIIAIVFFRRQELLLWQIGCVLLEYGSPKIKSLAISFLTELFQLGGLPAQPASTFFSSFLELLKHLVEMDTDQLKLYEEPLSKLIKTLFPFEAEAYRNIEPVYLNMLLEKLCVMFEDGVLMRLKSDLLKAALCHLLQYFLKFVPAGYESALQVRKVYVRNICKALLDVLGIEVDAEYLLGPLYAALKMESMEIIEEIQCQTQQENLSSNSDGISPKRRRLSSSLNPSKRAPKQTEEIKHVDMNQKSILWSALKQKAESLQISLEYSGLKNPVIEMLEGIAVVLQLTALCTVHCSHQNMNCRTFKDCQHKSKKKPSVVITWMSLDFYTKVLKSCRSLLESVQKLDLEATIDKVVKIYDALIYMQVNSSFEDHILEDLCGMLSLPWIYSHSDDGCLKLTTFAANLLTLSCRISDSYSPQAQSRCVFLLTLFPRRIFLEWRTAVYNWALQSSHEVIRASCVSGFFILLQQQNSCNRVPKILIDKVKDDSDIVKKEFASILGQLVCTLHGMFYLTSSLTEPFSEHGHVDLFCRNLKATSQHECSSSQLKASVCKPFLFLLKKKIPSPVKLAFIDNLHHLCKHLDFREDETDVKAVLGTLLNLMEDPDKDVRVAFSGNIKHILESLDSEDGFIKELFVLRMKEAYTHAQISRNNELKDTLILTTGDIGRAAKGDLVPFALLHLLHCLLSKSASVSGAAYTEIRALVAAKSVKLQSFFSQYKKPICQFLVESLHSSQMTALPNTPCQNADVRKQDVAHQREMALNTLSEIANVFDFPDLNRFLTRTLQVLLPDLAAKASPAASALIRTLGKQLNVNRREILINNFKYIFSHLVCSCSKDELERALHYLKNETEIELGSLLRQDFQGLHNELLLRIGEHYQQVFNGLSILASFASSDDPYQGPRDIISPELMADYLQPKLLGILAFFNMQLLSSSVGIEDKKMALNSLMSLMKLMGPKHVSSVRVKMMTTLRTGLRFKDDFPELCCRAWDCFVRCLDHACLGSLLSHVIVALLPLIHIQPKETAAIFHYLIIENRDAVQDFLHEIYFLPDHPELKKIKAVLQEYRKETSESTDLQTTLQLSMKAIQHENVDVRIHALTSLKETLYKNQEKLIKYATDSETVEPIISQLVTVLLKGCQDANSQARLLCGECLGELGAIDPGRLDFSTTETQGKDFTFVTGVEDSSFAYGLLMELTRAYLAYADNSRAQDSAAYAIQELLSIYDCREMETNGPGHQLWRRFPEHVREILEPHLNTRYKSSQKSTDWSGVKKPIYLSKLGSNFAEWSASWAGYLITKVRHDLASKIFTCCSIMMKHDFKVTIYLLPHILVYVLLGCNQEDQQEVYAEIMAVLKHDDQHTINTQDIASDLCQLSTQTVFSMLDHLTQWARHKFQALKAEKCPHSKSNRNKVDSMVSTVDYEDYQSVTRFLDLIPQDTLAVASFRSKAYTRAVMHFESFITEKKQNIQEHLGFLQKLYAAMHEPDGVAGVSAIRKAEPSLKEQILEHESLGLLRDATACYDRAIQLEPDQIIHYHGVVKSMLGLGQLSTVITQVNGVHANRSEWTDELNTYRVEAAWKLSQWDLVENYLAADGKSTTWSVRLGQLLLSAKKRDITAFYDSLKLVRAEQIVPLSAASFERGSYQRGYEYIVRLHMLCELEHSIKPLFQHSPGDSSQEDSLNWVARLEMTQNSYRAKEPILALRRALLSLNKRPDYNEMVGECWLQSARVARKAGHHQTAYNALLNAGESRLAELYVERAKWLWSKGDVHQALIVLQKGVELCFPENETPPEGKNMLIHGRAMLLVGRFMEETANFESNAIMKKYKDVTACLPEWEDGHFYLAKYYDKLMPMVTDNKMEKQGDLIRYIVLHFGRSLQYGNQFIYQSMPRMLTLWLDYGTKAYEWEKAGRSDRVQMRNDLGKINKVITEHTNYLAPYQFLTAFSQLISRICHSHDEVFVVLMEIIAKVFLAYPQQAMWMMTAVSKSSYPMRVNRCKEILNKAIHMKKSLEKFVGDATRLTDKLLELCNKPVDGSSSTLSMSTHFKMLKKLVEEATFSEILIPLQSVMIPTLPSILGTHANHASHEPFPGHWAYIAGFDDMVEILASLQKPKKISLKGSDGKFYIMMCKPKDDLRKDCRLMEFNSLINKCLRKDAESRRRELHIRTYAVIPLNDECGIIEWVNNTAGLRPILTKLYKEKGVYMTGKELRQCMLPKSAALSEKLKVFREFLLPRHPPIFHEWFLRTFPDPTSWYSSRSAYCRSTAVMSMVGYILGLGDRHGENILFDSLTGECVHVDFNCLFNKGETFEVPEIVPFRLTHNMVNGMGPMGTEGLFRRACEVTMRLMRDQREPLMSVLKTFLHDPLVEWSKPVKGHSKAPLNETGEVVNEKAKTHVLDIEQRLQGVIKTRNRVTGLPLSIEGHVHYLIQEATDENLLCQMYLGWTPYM

Turning to `Nc1nn2cc(F)cnc2c1C(=O)Nc1cncc(F)c1N1CCC(C(=O)N2CCN(C3COC3)CC2)CC1` [Compound I-1, 2-amino-6-fluoro-N-[5-fluoro-4-[4-[4-(oxetan-3-yl)piperazine-1-carbonyl]-1-piperidyl]-3-pyridyl]pyrazolo[1,5-a]pyrimidine-3-carboxamide], the pKi is greater than 6.00.
With `[2H]C1([2H])N(C(=O)C2CCN(c3c(F)cncc3NC(=O)c3c(N)nn4cc(F)cnc34)CC2)C([2H])([2H])C([2H])([2H])N(C2COC2)C1([2H])[2H]` [Compound I-3, 2-amino-6-fluoro-N-(5-fluoro-4-(4-(2,2,3,3,5,5,6,6-octadeutero-4-(oxetan-3-yl)piperazine-1-carbonyl)piperidin-1-yl)-3-pyridyl)pyrazolo[1,5-a]pyrimidine-3-carboxamide], the pKi was greater than 6.00.
